Test results from patent US8431596B2 (Cancer Research Technology Limited, priority 2007, dated 2013).
pIC50: −log10 of the molar value.

Biological target: T1, AXL (human catalytic domain) (Homo sapiens, UniProt P30530)
T1 construct: purchased Upstate Ltd. 14-512
T1 sequence (P30530 473-894): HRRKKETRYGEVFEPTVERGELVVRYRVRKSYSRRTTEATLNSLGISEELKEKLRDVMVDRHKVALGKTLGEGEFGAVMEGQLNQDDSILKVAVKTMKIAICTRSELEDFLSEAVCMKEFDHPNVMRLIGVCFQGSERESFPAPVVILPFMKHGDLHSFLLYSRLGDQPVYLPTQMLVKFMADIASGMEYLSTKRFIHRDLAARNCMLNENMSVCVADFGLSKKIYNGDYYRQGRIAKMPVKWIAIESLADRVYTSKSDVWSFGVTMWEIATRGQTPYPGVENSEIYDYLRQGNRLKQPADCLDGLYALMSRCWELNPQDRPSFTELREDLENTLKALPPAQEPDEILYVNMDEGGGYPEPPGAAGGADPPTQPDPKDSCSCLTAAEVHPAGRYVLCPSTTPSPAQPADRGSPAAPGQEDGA
Assay: AXL (human catalytic domain) Enzyme Activity Assay (IMAP fluorescence polarisation)
Assay type: biochemical
Method in brief: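 IMAP FP readout (Ex485/Em535, after overnight binding) measured inhibition of the human AXL catalytic domain (aa473-894, 15 nM final) acting on 100 nM 5FAM-CSK-tide at 150 μM ATP, equal to KM. Reactions ran 60 min at room temperature in pH 7.0 HEPES buffer; IC50 from 10-point curves.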

[1] = first data set, recombinant AXL isoform 1 aa473-894, 150 μM ATP
[2] = further data set (WW-001 through WW-169, XX-001 through XX-469, YY-001 through YY-016, ZZ-001 through ZZ-003), 150 μM ATP

pIC50 [1]	pIC50 [2]	SMILES
5.00 to 6.00	5.00 to 6.00	COc1ccc(-c2cccc3nc(NC(=O)CC4CC4)nn23)cc1 [WW-038]
–	6.00 to 7.00	O=C(Nc1cccc(-c2cccc3nc(Nc4ccc(OCCN5CCCC5)cc4)nn23)c1)c1ccccc1 [XX-179]
5.00 to 6.00	≥ 7.00	CNC(=O)COc1ccc(Nc2nc3cccc(-c4ccc(OC)cc4)n3n2)cc1 [XX-035]
–	5.00 to 6.00	O=C(Nc1cccc(-c2cccc3nc(Nc4ccc(OCCN5CCCC5)cc4)nn23)c1)Nc1ccccc1Cl [XX-232]
> 6.00	6.00 to 7.00	COCCNCCOc1ccc(Nc2nc3cccc(-c4ccc(OC)cc4)n3n2)cc1 [XX-031]
5.00 to 6.00	5.00 to 6.00	O=C(Nc1nc2cccc(NCc3cccc(Cl)c3)n2n1)C1CC1 [WW-081]
–	6.00 to 7.00	CC(c1ccc(-c2cccc3nc(Nc4ccc(OCCN5CCCC5)cc4)nn23)cc1)N(C)C (stereo not drawn) [XX-248]
> 6.00	6.00 to 7.00	COc1ccc(-c2cccc3nc(Nc4ccc(OCCNCCO)cc4)nn23)cc1 [XX-026]
–	5.00 to 6.00	O=C(NCc1ccc(Cl)cc1)c1cccc(-c2cccc3nc(Nc4ccc(OCCN5CCCC5)cc4)nn23)c1 [XX-462, N-(4-Chloro-benzyl)-3-{2-[4-(2-pyrrolidin-1-yl-ethoxy)-phenylamino]-[1,2,4]triazolo[1,5-a]pyridin-5-yl}-benzamide]
–	6.00 to 7.00	O=S(=O)(Cc1cccc(C(F)(F)F)c1)n1cc(-c2cccc3nc(Nc4ccc(OCCN5CCCC5)cc4)nn23)cn1 [XX-287]
–	5.00 to 6.00	Cc1ccc(-c2nnc(COc3cccc(-c4cccc5nc(Nc6ccc(OCCN7CCCC7)cc6)nn45)c3)o2)cc1 [XX-406]
–	5.00 to 6.00	Cc1ccccc1-c1cccc2nc(Nc3ccc(OCCN4CCCC4)cc3)nn12 [XX-212]
–	6.00 to 7.00	CCOc1ccc(-c2nccc3nc(Nc4ccc(OCCN5CCCC5)cc4)nn23)cc1 [YY-007]
5.00 to 6.00	5.00 to 6.00	CC(C)Cn1cc(-c2cccc3nc(NC(=O)C4CC4)nn23)cn1 [WW-108]
–	5.00 to 6.00	FC(F)(F)c1ccccc1-c1cccc2nc(Nc3ccc(OCCN4CCCC4)cc3)nn12 [XX-195]
–	6.00 to 7.00	FC(F)(F)c1ccc(-c2cccc3nc(Nc4ccc(OCCN5CCCC5)cc4)nn23)cc1 [XX-218]
–	6.00 to 7.00	CS(=O)(=O)n1cc(-c2cccc3nc(Nc4ccc(OCCN5CCCC5)cc4)nn23)cn1 [XX-276, [5-(1-Methanesulfonyl-1H-pyrazol-4-yl)-[1,2,4]triazolo[1,5-a]pyridin-2-yl]-[4-(2-pyrrolidin-1-yl-ethoxy)-phenyl]-amine]
5.00 to 6.00	5.00 to 6.00	COc1cc(Nc2cccc3nc(NC(=O)C4CC4)nn23)cc(OC)c1OC [WW-161]
–	6.00 to 7.00	c1cc(-c2ccncc2)cc(-c2cccc3nc(Nc4ccc(OCCN5CCCC5)cc4)nn23)c1 [XX-466]
–	6.00 to 7.00	CC(Oc1cccc(-c2cccc3nc(Nc4ccc(OCCN5CCCC5)cc4)nn23)c1)C(=O)Nc1ccccc1 (stereo not drawn) [XX-403]
–	6.00 to 7.00	COc1cc(-c2cccc3nc(Nc4ccc(OCCN5CCCC5)cc4)nn23)ccc1F [XX-334]
> 6.00	6.00 to 7.00	Cc1ccc(-c2cccc3nc(NC(=O)C4CC4)nn23)cc1 [WW-047]

pIC50 [1]	pIC50 [2]	SMILES
> 6.00	6.00 to 7.00	O=C(Nc1nc2cccc(-c3ccc4c(c3)OCCO4)n2n1)C1CC1 [WW-102]
–	6.00 to 7.00	O=C(Nc1cccc(-c2cccc3nc(Nc4ccc(OCCN5CCCC5)cc4)nn23)c1)c1cccnc1 [XX-180]
–	6.00 to 7.00	Fc1ccc(CNc2cccc(-c3cccc4nc(Nc5ccc(OCCN6CCCC6)cc5)nn34)c2)nc1 [XX-443]
–	6.00 to 7.00	COc1cc(Nc2nc3ccnc(-c4ccc5c(c4)OCCO5)n3n2)ccc1OCCN1CCCC1 [YY-008]
5.00 to 6.00	5.00 to 6.00	O=C(Nc1nc2cccc(-c3cncc(F)c3)n2n1)C1CC1 [WW-052]
–	6.00 to 7.00	Cc1noc(C)c1-c1ccc(-c2cccc3nc(Nc4ccc(OCCN5CCCC5)cc4)nn23)cc1 [XX-190]
–	6.00 to 7.00	CN(C)CCCc1ccc(Nc2nc3cccc(-c4ccc5c(c4)OCCO5)n3n2)cc1 [XX-137]
> 6.00	6.00 to 7.00	COc1ccc(-c2cccc3nc(Nc4ccc(OCCNCc5ccc(N)cc5)cc4)nn23)cc1 [XX-034]
–	6.00 to 7.00	COc1ccccc1CNc1cccc(-c2cccc3nc(Nc4ccc(OCCN5CCCC5)cc4)nn23)c1 [XX-451]
–	6.00 to 7.00	CC(=O)Nc1ccc(S(=O)(=O)n2cc(-c3cccc4nc(Nc5ccc(OCCN6CCCC6)cc5)nn34)cn2)cc1 [XX-376]
–	6.00 to 7.00	CCN(CC)CCOc1cc(Nc2nc3cccc(-c4ccc5c(c4)OCO5)n3n2)ccn1 [XX-358]
5.00 to 6.00	5.00 to 6.00	CN(C)C(=O)c1ccc(-c2cccc3nc(NC(=O)C4CC4)nn23)cc1 [WW-029]
–	6.00 to 7.00	COc1ccc(S(=O)(=O)Nc2ccc(-c3cccc4nc(Nc5ccc(OCCN6CCCC6)cc5)nn34)cc2)cc1 [XX-254, 4-Methoxy-N-(4-{2-[4-(2-pyrrolidin-1-yl-ethoxy)-phenylamino]-[1,2,4]triazolo[1,5-a]pyridin-5-yl}-phenyl)-benzenesulfonamide]
> 6.00	6.00 to 7.00	O=C(Nc1nc2cccc(-c3ccc(N4CCOCC4)cc3)n2n1)C1CC1 [WW-026]
–	≥ 7.00	O=S(=O)(C1CCCCC1)n1cc(-c2cccc3nc(Nc4ccc(OCCN5CCCC5)cc4)nn23)cn1 [XX-381]
–	6.00 to 7.00	Cc1cc(CNc2cccc(-c3cccc4nc(Nc5ccc(OCCN6CCCC6)cc5)nn34)c2)no1 [XX-446]
–	6.00 to 7.00	FC(F)(F)c1cccc(Cn2cc(-c3cccc4nc(Nc5ccc(OCCN6CCCC6)cc5)nn34)cn2)c1 [XX-273]
–	6.00 to 7.00	O=C(CCN1CCCCC1)Nc1cccc(Nc2nc3cccc(-c4ccc5c(c4)OCCO5)n3n2)c1 [XX-125]
–	6.00 to 7.00	c1cc(NCc2ncc[nH]2)cc(-c2cccc3nc(Nc4ccc(OCCN5CCCC5)cc4)nn23)c1 [XX-261]
–	5.00 to 6.00	c1ccc(-c2nnc(-c3cccc(-c4cccc5nc(Nc6ccc(OCCN7CCCC7)cc6)nn45)c3)o2)cc1 [XX-309, {5-[3-(5-Phenyl-[1,3,4]oxadiazol-2-yl)-phenyl]-[1,2,4]triazolo[1,5-a]pyridin-2-yl}-[4-(2-pyrrolidin-1-yl-ethoxy)-phenyl]-amine]
–	6.00 to 7.00	COc1ccc(CNc2ccc(-c3cccc4nc(Nc5ccc(OCCN6CCCC6)cc5)nn34)cc2)cc1 [XX-266]
–	6.00 to 7.00	CCN(CC)CCNc1cc(Nc2nc3cccc(-c4ccc(OC)cc4)n3n2)ccn1 [XX-300]

pIC50 [1]	pIC50 [2]	SMILES
–	6.00 to 7.00	c1cc(NCC2CC2)cc(-c2cccc3nc(Nc4ccc(OCCN5CCCC5)cc4)nn23)c1 [XX-444]
–	6.00 to 7.00	Fc1ccc(-c2cccc3nc(Nc4ccc(OCCN5CCCC5)cc4)nn23)cc1Cl [XX-282]
> 6.00	6.00 to 7.00	CN(C)CCOc1ncc(Nc2nc3cccc(-c4ccc5c(c4)OCCO5)n3n2)cn1 [XX-078]
–	6.00 to 7.00	CS(=O)(=O)Nc1cccc(-c2cccc3nc(Nc4ccc(OCCN5CCCC5)cc4)nn23)c1 [XX-224]
–	6.00 to 7.00	O=C(Cn1cc(-c2cccc3nc(Nc4ccc(OCCN5CCCC5)cc4)nn23)cn1)NCCO [XX-436]
–	6.00 to 7.00	c1cc(NCc2nc3c(s2)CCCC3)cc(-c2cccc3nc(Nc4ccc(OCCN5CCCC5)cc4)nn23)c1 [XX-447]
–	6.00 to 7.00	Cc1cccc(S(=O)(=O)n2cc(-c3cccc4nc(Nc5ccc(OCCN6CCCC6)cc5)nn34)cn2)c1 [XX-377]
5.00 to 6.00	5.00 to 6.00	CCC(=O)Nc1nc2cccc(-c3ccc(OC)cc3)n2n1 [WW-040]
> 6.00	≥ 7.00	c1cc(-c2ccc3occc3c2)n2nc(Nc3ccc(N4CCNCC4)cc3)nc2c1 [XX-058]
–	6.00 to 7.00	Cc1ccc(CNc2cccc(-c3cccc4nc(Nc5ccc(OCCN6CCCC6)cc5)nn34)c2)o1 [XX-395]
–	6.00 to 7.00	CCN(CC)CCOc1cc(Nc2nc3cccc(-c4cnn(S(=O)(=O)CC(C)C)c4)n3n2)ccn1 [XX-389]
–	5.00 to 6.00	COc1cccc(-c2cccc3nc(Nc4ccc(OCCN5CCCC5)cc4)nn23)c1 [XX-150]
> 6.00	≥ 7.00	CN(C)CCOc1cccc(Nc2nc3cccc(-c4ccc5c(c4)OCCO5)n3n2)c1 [XX-074]
> 6.00	6.00 to 7.00	CC(C)Oc1ccc(-c2cccc3nc(Nc4ccc(OCCN5CCCC5)cc4)nn23)cc1 [XX-012]
–	6.00 to 7.00	COc1ccc(-c2cccc3nc(Nc4ccc(OC[C@H](c5ccccc5)N5CCCC5)cc4)nn23)cc1 [XX-413]
5.00 to 6.00	5.00 to 6.00	CCS(=O)(=O)n1cc(-c2cccc3nc(NC(=O)C4CC4)nn23)cn1 [WW-147, Cyclopropanecarboxylic acid [5-(1-ethanesulfonyl-1H-pyrazol-4-yl)-[1,2,4]triazolo[1,5-a]pyridin-2-yl]-amide]
–	≥ 7.00	c1cc(-c2cnn(CC3CC3)c2)n2nc(Nc3ccc(OCCN4CCCC4)cc3)nc2c1 [XX-316]
–	6.00 to 7.00	c1cc(-c2ccc3c(c2)OCCO3)n2nc(Nc3ccc(OCCCN4CCCCC4)cc3)nc2c1 [XX-419]
–	6.00 to 7.00	c1cc(NCCN2CCCC2)cc(Nc2nc3cccc(-c4ccc5c(c4)OCCO5)n3n2)c1 [XX-116]
> 6.00	6.00 to 7.00	CCc1nnc(NCCOc2ccc(Nc3nc4cccc(-c5ccc(OC)cc5)n4n3)cc2)[nH]1 [XX-030]
